Here are results for 17 compounds from patent publication US9765057B2, “3-ester-4 substituted orexin receptor antagonists” (MERCK SHARP & DOHME CORP., priority 2012, dated 2017).

Molecules are shown by their SMILES.

One assay has as its target human orexin-2 receptor (Homo sapiens (Human), UniProt O43614). The assay is described as follows: FLIPR Ca2+ Flux Assay, hOX2R. Format: cell-based. The note with it: CHO cells expressing the human orexin-2 receptor; agonist 70 pM Ala-6,12 orexin-A. How it is done:
In a typical experiment the OX1 and OX2 receptor antagonistic activity of the compounds of the present invention was determined in accordance with the following experimental method. For intracellular calcium measurements, Chinese hamster ovary (CHO) cells expressing the rat orexin-1 receptor or the human orexin-2 receptor, are grown in Iscove's modified DMEM containing 2 mM L-glutamine, […], 1% hypoxanthine-thymidine supplement, 100 U/ml penicillin, 100 μg/ml streptomycin and 10% heat-inactivated fetal calf serum (FCS). The cells are seeded at 20,000 cells/well into Becton-Dickinson black 384-well clear bottom sterile plates coated with poly-D-lysine. All reagents were from GIBCO-Invitrogen Corp. The seeded plates are incubated overnight at 37° C. and 5% CO2. Ala-6,12 human orexin-A as the agonist is prepared as a 1 mM stock solution in 1% bovine serum albumin (BSA) and diluted in assay buffer (HBSS containing 20 mM HEPES, 0.1% BSA and 2.5 mM probenecid, pH7.4) for use in the assay at a final concentration of 70 pM. Test compounds are prepared as 10 mM stock solution in DMSO, then diluted in 384-well plates, first in DMSO, then assay buffer. On the day of the assay, cells are washed 3 times with 100 μl assay buffer and then incubated for 60 min (37° C., 5% CO2) in 60 μl assay buffer containing 1 μM Fluo-4AM ester, 0.02% pluronic acid, and 1% BSA. The dye loading solution is then aspirated and cells are washed 3 times with 100 μl assay buffer. 30 μl of that same buffer is left in each well. Within the Fluorescent Imaging Plate Reader (FLIPR, Molecular Devices), test compounds are added to the plate in a volume of 25 μl, incubated for 5 min and finally 25 μl of agonist is added. Fluorescence is measured for each well at 1 second intervals for 5 minutes and the height of each fluorescence peak is compared to the height of the fluorescence peak induced by 70 pM Ala-6,12 orexin-A with buffer in place of antagonist. For each antagonist, IC50 value (the concentration of compound needed to inhibit 50% of the agonist response) is determined Alternatively, compound potency can be assessed by a radioligand binding assay (described in Bergman et. al. Bioorg. Med. Chem. Lett. 2008, 18, 1425-1430) in which the inhibition constant (Ki) is determined in membranes prepared from CHO cells expressing either the OX1 or OX2 receptor. The intrinsic orexin receptor antagonist activity of a compound which may be used in the present invention may be determined by these assays.
For orientation: Calcium flux is commonly read through the fluorescence of an indicator in the cells.

The next assay addresses hOX1R (Homo sapiens, UniProt O43613). The assay is described as follows: FLIPR Ca2+ Flux Assay, hOX1R. Format: cell-based. The conditions noted are these: CHO cells expressing orexin-1 receptor; agonist 70 pM Ala-6,12 orexin-A.

human orexin-2 receptor, sequence (O43614 whole entry): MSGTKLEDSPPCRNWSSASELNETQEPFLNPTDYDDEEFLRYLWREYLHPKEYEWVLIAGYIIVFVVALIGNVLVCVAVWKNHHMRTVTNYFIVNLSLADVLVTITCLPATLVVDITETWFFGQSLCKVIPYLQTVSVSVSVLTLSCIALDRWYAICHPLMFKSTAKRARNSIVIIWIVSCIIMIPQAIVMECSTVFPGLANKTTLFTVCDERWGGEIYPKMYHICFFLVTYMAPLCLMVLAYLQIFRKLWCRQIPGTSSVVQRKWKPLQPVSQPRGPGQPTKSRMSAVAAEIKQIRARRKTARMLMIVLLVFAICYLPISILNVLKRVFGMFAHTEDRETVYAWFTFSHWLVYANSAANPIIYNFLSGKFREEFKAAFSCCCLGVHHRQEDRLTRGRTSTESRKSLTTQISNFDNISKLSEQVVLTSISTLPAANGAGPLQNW

Take `CCOC(=O)c1c(CC)ccnc1O[C@@H]1CC[C@@H](C)N(C(=O)c2ccccc2-n2nccn2)C1` [Example 17, Ethyl 4-ethyl-2-{[(3R,6R)-6-methyl-1-{[2-(2H-1,2,3-triazol-2-yl)phenyl]carbonyl}piperidin-3-yl]oxy}pyridine-3-carboxylate]: the IC50 is 40.4 nM on human orexin-2 receptor and 172 nM at hOX1R.
The corresponding values for `COC(=O)c1c(SC)ccnc1O[C@@H]1CC[C@@H](C)N(C(=O)c2ccc(F)cc2-c2ncccn2)C1` [Example 6, methyl 2-({(3R,6R)-1-[(4-fluoro-2-pyrimidin-2-ylphenyl)carbonyl]-6-methylpiperidin-3-yl}oxy)-4-(methylsulfanyl)pyridine-3-carboxylate] are 31.6 nM and 888 nM.
Taken in the same sequence, the figures for `COC(=O)c1c(SC)ccnc1O[C@@H]1CC[C@@H](C)N(C(=O)c2ccccc2-n2nccn2)C1` [Example 3, methyl 4-(methylsulfanyl)-2-{[(3R,6R)-6-methyl-1-{[2-(2H-1,2,3-triazol-2-yl)phenyl]carbonyl}-piperidin-3-yl]oxy}pyridine-3-carboxylate] were 10 nM and 618 nM.
Taken in the same sequence, the figures for `CCOC(=O)c1c(C)ccnc1O[C@@H]1CC[C@@H](C)N(C(=O)c2ccccc2-n2nccn2)C1` [Example 1, Ethyl 4-methyl-2-{[(3R,6R)-6-methyl-1-{[2-(2H-1,2,3-triazol-2-yl)phenyl]carbonyl}piperidin-3-yl]oxy}pyridine-3-carboxylate] were 8.3 nM and 79 nM.
As to `COC(=O)c1c(C(C)C)ccnc1O[C@@H]1CC[C@@H](C)N(C(=O)c2ccccc2-n2nccn2)C1` [Example 12, methyl 4-(1-methylethyl)-2-{[(3R,6R)-6-methyl-1-{[2-(2H-1,2,3-triazol-2-yl)phenyl]carbonyl}-piperidin-3-yl]oxy}pyridine-3-carboxylate], the half-inhibitory concentration (IC50) on human orexin-2 receptor was found to be 5.46 nM; at hOX1R, 80 nM.
The corresponding values for `COC(=O)c1c(C2CCC2)ccnc1O[C@@H]1CC[C@@H](C)N(C(=O)c2ccccc2-n2nccn2)C1` [Example 14, methyl 4-cyclobutyl-2-{[(3R,6R)-6-methyl-1-{[2-(2H-1,2,3-triazol-2-yl)phenyl]carbonyl}piperidin-3-yl]oxy}pyridine-3-carboxylate] are 272 nM and 5580 nM.
For the compound `COC(=O)c1c(C)cccc1O[C@@H]1CC[C@@H](C)N(C(=O)c2ccccc2-n2nccn2)C1` [Example 15, methyl 2-methyl-6-{[(3R,6R)-6-methyl-1-{[2-(2H-1,2,3-triazol-2-yl)phenyl]carbonyl}piperidin-3-yl]oxy}benzoate], the IC50 was 36.2 nM at human orexin-2 receptor and 1930 nM on hOX1R.
For the compound `COC(=O)c1c(C)ccnc1O[C@@H]1CC[C@@H](C)N(C(=O)c2ccccc2-n2nccn2)C1` [Example 2, methyl 4-methy1-2-{[(3R,6R)-6-methyl-1-{[2-(2H-1,2,3-triazol-2-yl)phenyl]carbonyl}piperidin-3-yl]oxy}pyridine-3-carboxylate], the figures for the IC50 at human orexin-2 receptor and on hOX1R were 17.4 nM and 86.2 nM, respectively.
Taken in the same sequence, the figures for `COC(=O)c1c(SC)ccnc1O[C@@H]1CC[C@@H](C)N(C(=O)c2ccccc2-c2ncccn2)C1` [Example 4, Methyl 2-({(3R,6R)-6-methyl-1-{(2-pyrimidin-2ylphenyl)carbonyl}piperidin-3yl}oxy)-4-(methylsulfanyl)pyridine-3-carboxylate] were 28.3 nM and 554 nM.
Taken in the same sequence, the figures for `COC(=O)c1c(SC)ccnc1O[C@@H]1CC[C@@H](C)N(C(=O)c2cccc(F)c2-c2ncccn2)C1` [Example 7, methyl 2-({(3R,6R)-1-[(3-fluoro-2-pyrimidin-2-ylphenyl)carbonyl]-6-methylpiperidin-3-yl}oxy)-4-(methylsulfanyl)pyridine-3-carboxylate] were 37.8 nM and 1030 nM.
Taken in the same sequence, the figures for `CCc1ccnc(O[C@@H]2CC[C@@H](C)N(C(=O)c3ccccc3-n3nccn3)C2)c1C(=O)OC` [Example 10, Methyl 4-ethyl-2-{[(3R,6R)-6-methyl-1-{[2-(2H-1,2,3-triazol-2-yl)phenyl]carbonyl}piperidin-3-yl]oxy}pyridine-3-carboxylate] were 21.1 nM and 74.9 nM.
As for `COC(=O)c1c(O[C@@H]2CC[C@@H](C)N(C(=O)c3ccccc3-n3nccn3)C2)cccc1C(C)C` [Example 16, methyl 2-(1-methylethyl)-6-{[(3R,6R)-6-methyl-1-{[2-(2H-1,2,3-triazol-2-yl)phenyl]carbonyl}-piperidin-3-yl]oxy}benzoate], the 50% inhibitory concentration (IC50) at human orexin-2 receptor is 68.8 nM; at hOX1R, 1460 nM.
On to `COC(=O)c1c(SC)ccnc1O[C@@H]1CC[C@@H](C)N(C(=O)c2cc(F)ccc2-c2ncccn2)C1` [Example 5, methyl 2-({(3R,6R)-1-[(5-fluoro-2-pyrimidin-2-ylphenyl)carbonyl]-6-methylpiperidin-3-yl}oxy)-4-(methylsulfanyl)pyridine-3-carboxylate], for which the figures for the IC50 at human orexin-2 receptor and at hOX1R were 72.9 nM and 880 nM, respectively.
In the case of `COC(=O)c1c(N2CCC2)ccnc1O[C@@H]1CC[C@@H](C)N(C(=O)c2ccccc2-n2nccn2)C1` [Example 8, Methyl 4-azetidin-1-yl-2-{[(3R,6R)-6-methyl-1-{[2-(2H-1,2,3-triazol-2-yl)phenyl]carbonyl}piperidin-3-yl]oxy}pyridine-3-carboxylate], the figures for the IC50 at human orexin-2 receptor and on hOX1R were 33 nM and 743 nM, respectively.
Taken in the same sequence, the figures for `COC(=O)c1c(N2CCN(C)CC2)ccnc1O[C@@H]1CC[C@@H](C)N(C(=O)c2ccccc2-n2nccn2)C1` [Example 9, methyl 4-(4-methylpiperazin-1-yl)-2-{[(3R,6R)-6-methyl-1-{[2-(2H-1,2,3-triazol-2-yl)phenyl]carbonyl}-piperidin-3-yl]oxy}pyridine-3-carboxylate] were 1530 nM and 10000 nM.
Taken in the same sequence, the figures for `COC(=O)c1c(C2CC2)ccnc1O[C@@H]1CC[C@@H](C)N(C(=O)c2ccccc2-n2nccn2)C1` [Example 13, methyl 4-cyclopropyl-2-{[(3R,6R)-6-methyl-1-{[2-(2H-1,2,3-triazol-2-yl)phenyl]carbonyl}piperidin-3-yl]oxy}pyridine-3-carboxylate] were 530 nM and 803 nM.
`COC(=O)c1c(C(C)(C)C)ccnc1O[C@@H]1CC[C@@H](C)N(C(=O)c2ccccc2-n2nccn2)C1` [Example 11]: the results for the IC50 at human orexin-2 receptor and on hOX1R were 1010 nM and 2050 nM, respectively.

By IC50 is commonly meant the concentration needed to halve the response being measured. A lower IC50 goes with inhibition by little substance.
